Results on 13 molecules are retold here after ChEMBL document CHEMBL1201862, “PubChem BioAssay data set” (2004).

“And” between values parts separate entries of the source, which are not always exact repeats. Identical values can stand only once.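 Cultured in 96-well plates, cells were exposed to test compound for 48 hours across five concentrations. Here, GI50 denotes the concentration required for 50% inhibition of growth.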 The source made the active and inactive calls. Cut-off read from the data, not from the text of the source: active = GI50 up to about 1.1 µM and inactive = higher. Peptide text beside a SMILES is read from it. * marks the point of attachment. Cbz = O=C(OCc1ccccc1)*; NHNH2 = NN*

Some test systems named below: 786-0; HCT-15; HL-60; HOP-92; HT-29; M14; MCF7; MDA-MB-435; NCI-H226; NCI-H23; NCI-H522; NCI/ADR-RES; OVCAR-4; PC-3; SK-MEL-2; SN12C; SR; SW-620; MDA-MB-231.
What all share (assay): NCI anticancer screen, dose series, 48 h

For the molecule `CC(=O)N[C@@H](Cc1ccc(O)cn1)C(=O)NCc1ccc2c(c1)OCO2`, the GI50 was > 100 µM (inactive) with 786-0; > 100 µM in the experiment on HCT-15; > 100 µM (inactive) in the experiment on HL-60; > 100 µM (inactive) with HOP-92; > 100 µM (inactive) in the experiment on HT-29; > 100 µM (inactive) with M14. In addition, the GI50 with MCF7, in the experiment on MDA-MB-435, with NCI-H226, in the experiment with NCI-H23, with NCI-H522 and in the experiment on NCI/ADR-RES was > 100 µM (inactive) throughout. Besides, the GI50 in the experiment with OVCAR-4, in the experiment with PC-3, with SK-MEL-2, in the experiment with SN12C, with SR and with SW-620 was > 100 µM (inactive) in each case.

`Cc1ccc(S(=O)(=O)NC(=O)NCCC(=O)O)cc1`: the GI50 in the experiment on 786-0 was > 100 µM (inactive); in the experiment with HCT-15 it was 21.4 µM; in the experiment on HL-60, > 100 µM (inactive); in the experiment on HOP-92 it was > 100 µM (inactive); with HT-29 it was > 100 µM (inactive); in the experiment with M14, > 100 µM (inactive). Further, the GI50 in the experiment with MCF7 is > 100 µM (inactive); with MDA-MB-231, > 100 µM (inactive); in the experiment with NCI-H23 it was 19.3 µM (inactive); with NCI-H522 it was > 100 µM (inactive); in the experiment with OVCAR-4, > 100 µM (inactive); with PC-3 it was > 100 µM (inactive). Also, the GI50 in the experiment with SK-MEL-2, with SN12C, in the experiment with SR and in the experiment with SW-620 was > 100 µM (inactive) each time.

In the case of `CCOC(=O)/C=C/C(=O)O/C=C/[N+](=O)[O-]`, the GI50 was > 100 µM (inactive) in the experiment with 786-0; > 100 µM in the experiment with HCT-15; > 100 µM (inactive) in the experiment with HL-60; > 100 µM (inactive) with HOP-92; > 100 µM (inactive) with HT-29; > 100 µM (inactive) in the experiment on M14. The GI50 with MCF7, with MDA-MB-231, in the experiment with MDA-MB-435, in the experiment on NCI-H226, in the experiment with NCI-H23 and in the experiment with NCI-H522 was > 100 µM (inactive) throughout. For the same molecule, the GI50 in the experiment on NCI/ADR-RES, in the experiment with SN12C, with SR and with SW-620 was > 100 µM (inactive) each time.

Consider `CS/C(=N/C(=O)c1ccccc1Cl)SCCS/C(=N\C(=O)c1ccccc1Cl)SC`, for which the GI50 was > 100 µM (inactive) with 786-0; > 100 µM in the experiment on HCT-15; > 100 µM (inactive) in the experiment on HL-60; 19.6 µM (inactive) in the experiment with HOP-92; > 100 µM (inactive) in the experiment with HT-29; > 100 µM (inactive) in the experiment on M14. The GI50 with NCI-H226, in the experiment on NCI-H23, in the experiment on NCI-H522, in the experiment on OVCAR-4, in the experiment with SK-MEL-2 and with SN12C was > 100 µM (inactive) throughout. For the same molecule, the GI50 in the experiment on SW-620 is > 100 µM (inactive).

As for `O=[N+]([O-])c1ccc(-c2nn3c(C45CC6CC(CC(C6)C4)C5)nnc3s2)c(Cl)c1`, the GI50 was > 100 µM (inactive) with 786-0; > 100 µM in the experiment with HCT-15; > 100 µM (inactive) in the experiment on HL-60; > 100 µM (inactive) in the experiment on HOP-92; > 100 µM (inactive) with HT-29; > 100 µM (inactive) in the experiment with M14. Further, the GI50 in the experiment with MDA-MB-231, with MDA-MB-435, in the experiment on NCI-H226, with NCI-H23, in the experiment on NCI-H522 and in the experiment on NCI/ADR-RES was > 100 µM (inactive) throughout. For the same molecule, the GI50 in the experiment with OVCAR-4, with PC-3, in the experiment on SK-MEL-2, in the experiment with SN12C, in the experiment on SR and with SW-620 was > 100 µM (inactive) in each case.

Take `CC1CC/C(=C\c2ccc(F)cc2)C2=C1C(c1ccc(F)cc1)n1c(s/c(=C/c3cccc(Br)c3)c1=O)=N2` (stereo not given): the GI50 was > 100 µM (inactive) in the experiment with 786-0; > 100 µM in the experiment with HCT-15; > 100 µM (inactive) in the experiment on HL-60; > 100 µM (inactive) in the experiment on HOP-92; > 100 µM (inactive) in the experiment on HT-29; > 100 µM (inactive) in the experiment with M14. The GI50 with MCF7, in the experiment on MDA-MB-231, in the experiment on MDA-MB-435, in the experiment on PC-3, in the experiment on SK-MEL-2 and with SN12C was > 100 µM (inactive) throughout. Also, the GI50 in the experiment on SR and with SW-620 was > 100 µM (inactive) throughout.

As for `Cc1ccc(C(=O)O)c(/C=C2\Cc3ccc(C)cc3C2=O)c1`, the GI50 with 786-0 was 62.2 µM (inactive); with HCT-15, 56.4 µM; with HL-60, 28.6 µM (inactive); in the experiment with HOP-92 it was > 100 µM (inactive); with HT-29, 34.8 µM (inactive); in the experiment with M14 it was > 100 µM (inactive). Further, the GI50 is 63.5 µM (inactive) in the experiment on MCF7; 38 µM (inactive) with MDA-MB-435; 28.2 µM (inactive) with NCI-H226; 75.3 µM (inactive) in the experiment with NCI-H23; 96.8 µM (inactive) in the experiment on NCI-H522; 71.8 µM (inactive) in the experiment on NCI/ADR-RES. Further, the GI50 in the experiment on OVCAR-4 was 50.5 µM (inactive); in the experiment on PC-3, 48.8 µM (inactive); in the experiment on SK-MEL-2, 32 µM (inactive); in the experiment with SN12C it was 40.6 µM (inactive); in the experiment on SR, 32.5 µM (inactive); in the experiment on SW-620, > 100 µM (inactive).

As to `COc1ccc(C[C@H]2COC(=O)[C@@H]2Cc2ccccc2)cc1OC`, the GI50 in the experiment with 786-0, in the experiment on HT-29, with MCF7, with MDA-MB-231, in the experiment with NCI-H226 and in the experiment with NCI-H23 was > 100 µM (inactive) each time. Besides, the GI50 in the experiment on NCI/ADR-RES, in the experiment with PC-3, in the experiment on SN12C, in the experiment with SR and in the experiment on SW-620 was > 100 µM (inactive) in each case.

Consider `Cn1c(=O)c2[nH]c(/N=N\n3ccc4ccccc43)nc2n(C)c1=O`, for which the GI50 was > 100 µM (inactive) in the experiment with 786-0; > 100 µM in the experiment on HCT-15; > 100 µM (inactive) with HL-60; > 100 µM (inactive) in the experiment with HT-29; > 100 µM (inactive) in the experiment on M14; > 100 µM (inactive) with MDA-MB-231. The GI50 with MDA-MB-435, with NCI-H226, in the experiment on NCI-H23, with NCI-H522, in the experiment with NCI/ADR-RES and in the experiment on OVCAR-4 was > 100 µM (inactive) in each case. The GI50 with PC-3, in the experiment on SN12C, with SR and with SW-620 was > 100 µM (inactive) each time.

On to `Cc1nc2ccccc2c(=O)n1NC(=O)c1ccccn1`, for which the GI50 with 786-0, in the experiment with HL-60, in the experiment with HOP-92, in the experiment with HT-29, in the experiment with M14 and in the experiment with MDA-MB-231 was > 100 µM (inactive) each time. The GI50 in the experiment with MDA-MB-435, in the experiment on NCI-H23, in the experiment on NCI-H522, in the experiment on NCI/ADR-RES, with OVCAR-4 and with PC-3 was > 100 µM (inactive) each time. The GI50 with SN12C, with SR and in the experiment on SW-620 was > 100 µM (inactive) throughout.

As to `COc1cc(-c2c(C(C)=O)c(-c3ccccc3)n(C3OC(COC(C)=O)C(OC(C)=O)C(OC(C)=O)C3OC(C)=O)c(=S)c2C#N)ccc1O` (stereo not given), the GI50 was > 100 µM (inactive) in the experiment on 786-0; > 100 µM in the experiment with HCT-15; 36.6 µM (inactive) with HOP-92; 76.6 µM (inactive) and 76.9 µM (inactive) in the experiment on HT-29; > 100 µM (inactive) in the experiment on M14; > 100 µM (inactive) and 81.5 µM (inactive) with MCF7. Also, the GI50 in the experiment on MDA-MB-435 is 57.1 µM (inactive) and 35.4 µM (inactive); in the experiment on NCI-H23, 72.8 µM (inactive); with NCI/ADR-RES, > 100 µM (inactive); in the experiment on OVCAR-4 it was > 100 µM (inactive); with PC-3, 46.8 µM (inactive) and 65.6 µM (inactive); with SN12C it was > 100 µM (inactive). For the same molecule, the GI50 in the experiment with SR and in the experiment on SW-620 was > 100 µM (inactive) in each case.

Regarding `Cc1ccc(/C=C/C(=O)c2sc(-c3cccnc3)nc2C)cc1`, the GI50 with 786-0 is > 100 µM (inactive); in the experiment on HCT-15, > 100 µM; in the experiment on HL-60, > 100 µM (inactive); in the experiment on HOP-92, > 100 µM (inactive); in the experiment with HT-29, > 100 µM (inactive); in the experiment on NCI-H226, > 100 µM (inactive). In addition, the GI50 in the experiment on NCI-H23, in the experiment on NCI-H522, with SK-MEL-2, with SN12C and in the experiment on SW-620 was > 100 µM (inactive) throughout.

For the molecule `COC(=O)CC(NC(=O)OCc1ccccc1)C(=O)NC(CC(=O)OC)C(=O)NC(CC(=O)OC)C(=O)NC(CC(=O)OC)C(=O)NC(CC(=O)OC)C(=O)NC(CC(=O)OC)C(=O)NN` (stereo not given) (Cbz-D(OMe)D(OMe)D(OMe)D(OMe)D(OMe)D(OMe)-NHNH2; configuration not given here), the GI50 with 786-0 was > 100 µM (inactive); in the experiment with HCT-15, > 100 µM; in the experiment on HL-60, > 100 µM (inactive); with HOP-92, > 100 µM (inactive); in the experiment with HT-29 it was > 100 µM (inactive); in the experiment on M14, > 100 µM (inactive). Further, the GI50 in the experiment with MCF7, with MDA-MB-231, in the experiment with MDA-MB-435, in the experiment with OVCAR-4, in the experiment on PC-3 and with SK-MEL-2 was > 100 µM (inactive) throughout. The GI50 with SN12C, with SR and in the experiment with SW-620 was > 100 µM (inactive) throughout.
